For the assay, the system named is SARS-CoV-2 HR1 target mimic peptide HR1P. Type of assay: binding.

For the molecule `CC[C@H](C)[C@H](NC(=O)[C@H](C)NC(=O)[C@H](CCC(=O)O)NC(=O)[C@H](CCC(N)=O)NC(=O)[C@H](CC(C)C)NC(=O)[C@H](CCCNC(=N)N)NC(=O)[C@H](CC(N)=O)NC(=O)[C@H](CCSC)NC(=O)[C@H](CCC(=O)O)NC(=O)[C@H](CC(=O)O)NC(=O)[C@H](CCC(N)=O)NC(=O)[C@H](CC(C)C)NC(=O)[C@H](CC(=O)O)NC(=O)[C@H](CC(C)C)NC(=O)[C@H](Cc1ccccc1)NC(=O)[C@@H](NC(=O)[C@@H](NC(=O)[C@H](CC(N)=O)NC(=O)[C@@H](NC(=O)[C@H](Cc1ccc(O)cc1)NC(=O)[C@H](CC(=O)O)NC(=O)[C@H](CC(C)C)NC(=O)[C@H](CO)NC(C)=O)[C@@H](C)CC)C(C)C)[C@@H](C)O)C(=O)N[C@@H](CCCCN)C(=O)N[C@H](C(=O)N[C@@H](CC(C)C)C(=O)N[C@@H](CC(N)=O)C(=O)N[C@@H](CCC(N)=O)C(=O)N[C@@H](CO)C(=O)N[C@@H](Cc1ccc(O)cc1)C(=O)N[C@H](C(=O)N[C@@H](CC(N)=O)C(=O)N[C@@H](CC(C)C)C(=O)N[C@@H](CCCCN)C(=O)N[C@@H](CC(=O)O)C(=O)N[C@H](C(=O)NCCOCCOCCOCCOCCOCCOCCOCCOCCC(=O)N[C@@H](CCCCNC(=O)CCC(=O)O[C@H]1CC[C@@]2(C)C(=CC[C@H]3[C@@H]4CC[C@H]([C@H](C)CCCC(C)C)[C@@]4(C)CC[C@@H]32)C1)C(N)=O)[C@@H](C)CC)[C@@H](C)CC)C(C)C` [OC43-LP], the “Tm of complex with HR1P (binding stability)” value came out at 63 °C.

In the case of `CC[C@H](C)[C@H](NC(=O)[C@H](Cc1ccc(O)cc1)NC(=O)[C@H](CO)NC(=O)[C@H](CCC(=O)O)NC(=O)[C@H](CC(N)=O)NC(=O)[C@H](CC(C)C)NC(=O)[C@H](C)NC(=O)[C@H](CCCCN)NC(=O)[C@@H](NC(=O)[C@@H](NC(=O)[C@H](CCC(N)=O)NC(=O)[C@H](CCC(N)=O)NC(=O)[C@H](CC(C)C)NC(=O)[C@H](CO)NC(=O)[C@H](CC(C)C)NC(=O)[C@H](CCSC)NC(=O)[C@H](CCC(=O)O)NC(=O)[C@H](Cc1ccc(O)cc1)NC(=O)[C@@H](NC(=O)[C@H](CC(C)C)NC(=O)[C@H](CC(=O)O)NC(=O)[C@H](CC(C)C)NC(=O)[C@H](CC(C)C)NC(=O)[C@@H](NC(=O)[C@@H](NC(=O)[C@H](CC(N)=O)NC(=O)[C@@H](NC(=O)[C@H](CCC(N)=O)NC(=O)[C@@H](NC(=O)[C@H](CC(C)C)NC(=O)[C@H](CO)NC(C)=O)[C@@H](C)O)[C@@H](C)CC)[C@@H](C)O)[C@@H](C)O)[C@@H](C)O)C(C)C)C(C)C)C(=O)N[C@@H](CC(=O)O)C(=O)N[C@@H](CC(C)C)C(=O)N[C@@H](CCCCN)C(=O)N[C@@H](CCC(=O)O)C(=O)N[C@@H](CC(C)C)C(=O)NCCOCCOCCOCCOCCOCCOCCOCCOCCC(=O)N[C@@H](CCCCNC(=O)CCC(=O)O[C@H]1CC[C@@]2(C)C(=CC[C@H]3[C@@H]4CC[C@H]([C@H](C)CCCC(C)C)[C@@]4(C)CC[C@@H]32)C1)C(N)=O` [MERS-LP], the “Tm of complex with HR1P (binding stability)” value turned out to be 47 °C.

The values are drawn from article PMC8330190 (Signal Transduction and Targeted Therapy, 2021).
